Test results published in patent US5821353A, “DNA encoding 1,3 beta-D glucan synthase subunits” (Merck & Co., Inc., priority 1996, dated 1998).

What was measured:
[1] = tested on: S. cerevisiae R560-1 / R560-1C (fks1-2); test: liquid MIC assay of resistant clone; format: cell-based, Saccharomyces cerevisiae
Description: Strain W303-1A was transformed by the spheroplast method (MYG) with yeast genomic libraries obtained from D. Botstein (1982. Cell, 28:145-154). Transformants selected on uracil dropout medium were pooled and stored at -80° C. in 20% glycerol. After determining the titer (colony forming units(CFU)/ml), aliquots of the stocks were spread at .congruent.5×10^3 CFU per plate onto uracil dropout medium containing the semisynthetic echinocandin L-733,560 at 0.5 mcg/ml or 1.25 mcg/ml. This concentration of L-733,560 is sufficient to select for resistant clones. Twenty-seven drug resistant colonies were isolated. […] Briefly, L-733,560 was serially diluted across the wells of a sterile microtiter plate such that the concentration in each row ranged from 16 to 0.03 mcg/ml in 2-fold increments after an equal volume of a cell suspension in liquid uracil dropout medium was added. After 24 h at 30° C., plates were read in a spectrophotometer at a wavelength of 600 nm, and the percent of control growth in each well (relative to a no-drug control well) was calculated. […]
Because this strain was isolated as a transfornant from the genomic library, it was expected that resistance would be due to the gene residing on the plasmid contained in R560-1. […] R560-1C was mated to the wild type strain W303-1B, sporulated, dissected, and the sensitivity to L-733,560 quantitated by liquid MIC assay. […]

[2] = biological target: 1,3-beta-D glucan synthase from X2180-1A (Saccharomyces cerevisiae, UniProt P38631); test: 1,3-beta-D glucan synthase assay, membrane preparation; format: biochemical; details: membranes of X2180-1A
Description: Cell free extracts were prepared from mutant and wild type cells grown to logarithmic phase as previously described (Kang and Cabib, PNAS, 83:5808-5812, 1986). After homogenization with glass beads, the unbroken cells and debris were removed by a low speed centrifugation (1,000×gfor 5 min). The supernatant fluids were centrifuged at 100,000×g for 60 min and the pellets were washed with 2.5 ml (per gram of wet cells) of buffer containing 0.05M potassium phosphate (pH 7.5), 0.5 mM DTT, and 1.0 mM PMSF. The washed pellet was resuspended in the same buffer containing 5% glycerol. This served as the microsomal membranes source containing both chitin and glucan synthase enzymatic activities. The standard 1,3-beta-D glucan synthase reaction was initiated by mixing 35 mcg protein in cocktail I, which included TEK buffer (125 mM Tris chloride, pH 7.5, 31 mM KF, and 1 mM EDTA), 25% PBS, pH 7.0, 3.31 mcM GTP-gamma-S, and 0.25% BSA in a total volume of 69 mcL, with cocktail II, which included 4 units alpha-amylase, 25 mcg UDP-glucose, and 1 microCi UDP-^3 H-glucose, in a total volume of 11 mcL. Following 150 minutes of incubation at 30° C., the incorporation of UDP-^[…] into glucan was measured after precipitation with trichloroacetic acid.
Crude enzyme preparations associated with cell membranes were tested for glucan and chitin synthesis activities. […]

[3] = tested on: S. cerevisiae FKS1 pcr1 (fks2-1): MY2257, MY2258; test: MIC assay; format: cell-based, Saccharomyces cerevisiae; details: less than 10% growth, 42 hours
Description: (§1) The sensitivities of pcr1(fks2-1) fks1-1 and pcr1(fks2-1) FKS1 strains to L-733,560, L-636,947 (Aculeacin), and L-687,781 (Dihydropapulocandin) were determined in MIC assays. Briefly, strains were grown to stationary phase in 5.0 ml of liquid YPAD medium. MY2256 precultures were grown in liquid YPAD10Ca. MIC assays were performed in flat well microtiter plates in triplicate. Each well of the microtiter plate was filled with 100 mcL of YPAD medium. To the first well, 100 mcL of a 4× solution of drug in YPAD medium was added. To serve as a control, a stock solution of […] of YPAD was made. 100 mcL of this solution was added to the initial well for strains grown in the presence of solvent but the absence of drug. Two-fold serial dilutions of the drug were performed down the plate.
(§2) Cultures were diluted to 5×10^5 cells/ml in YPAD (1 OD660 =3.3×10^7 cells/ml). 100 mcL of diluted culture was added to each well, resuspended, and incubated at 28° C. After 42 hours, cultures were resuspended and cells densities measured in an SLT Laboratories 340 ATTC microtiter plate reader. The MICs concentrations presented in the table below represent the concentrations of drug that result in less than 10% growth of the strain grown in the absence of drug.

[4] = tested on: S. cerevisiae fks1-1 PCR1 YFK0688-14B; test: MIC assay; format: cell-based, Saccharomyces cerevisiae; details: less than 10% growth of no-drug control, 42 hours, 28° C.
Description: as §1, §2

[5] = tested on: S. cerevisiae fks1-1 pcr1 (fks2-1): MY2256, YFK0996-11B, MY2259, MY2260; test: MIC assay; format: cell-based, Saccharomyces cerevisiae; details: less than 10% growth, 42 hours
Description: as §1, §2

[6] = tested on: S. cerevisiae wild type YFK0005; test: MIC assay; format: cell-based, Saccharomyces cerevisiae; details: less than 10% growth of no-drug control, 42 hours, 28° C.
Description: as §1, §2

Sequence of 1,3-beta-D glucan synthase from X2180-1A (P38631 whole entry): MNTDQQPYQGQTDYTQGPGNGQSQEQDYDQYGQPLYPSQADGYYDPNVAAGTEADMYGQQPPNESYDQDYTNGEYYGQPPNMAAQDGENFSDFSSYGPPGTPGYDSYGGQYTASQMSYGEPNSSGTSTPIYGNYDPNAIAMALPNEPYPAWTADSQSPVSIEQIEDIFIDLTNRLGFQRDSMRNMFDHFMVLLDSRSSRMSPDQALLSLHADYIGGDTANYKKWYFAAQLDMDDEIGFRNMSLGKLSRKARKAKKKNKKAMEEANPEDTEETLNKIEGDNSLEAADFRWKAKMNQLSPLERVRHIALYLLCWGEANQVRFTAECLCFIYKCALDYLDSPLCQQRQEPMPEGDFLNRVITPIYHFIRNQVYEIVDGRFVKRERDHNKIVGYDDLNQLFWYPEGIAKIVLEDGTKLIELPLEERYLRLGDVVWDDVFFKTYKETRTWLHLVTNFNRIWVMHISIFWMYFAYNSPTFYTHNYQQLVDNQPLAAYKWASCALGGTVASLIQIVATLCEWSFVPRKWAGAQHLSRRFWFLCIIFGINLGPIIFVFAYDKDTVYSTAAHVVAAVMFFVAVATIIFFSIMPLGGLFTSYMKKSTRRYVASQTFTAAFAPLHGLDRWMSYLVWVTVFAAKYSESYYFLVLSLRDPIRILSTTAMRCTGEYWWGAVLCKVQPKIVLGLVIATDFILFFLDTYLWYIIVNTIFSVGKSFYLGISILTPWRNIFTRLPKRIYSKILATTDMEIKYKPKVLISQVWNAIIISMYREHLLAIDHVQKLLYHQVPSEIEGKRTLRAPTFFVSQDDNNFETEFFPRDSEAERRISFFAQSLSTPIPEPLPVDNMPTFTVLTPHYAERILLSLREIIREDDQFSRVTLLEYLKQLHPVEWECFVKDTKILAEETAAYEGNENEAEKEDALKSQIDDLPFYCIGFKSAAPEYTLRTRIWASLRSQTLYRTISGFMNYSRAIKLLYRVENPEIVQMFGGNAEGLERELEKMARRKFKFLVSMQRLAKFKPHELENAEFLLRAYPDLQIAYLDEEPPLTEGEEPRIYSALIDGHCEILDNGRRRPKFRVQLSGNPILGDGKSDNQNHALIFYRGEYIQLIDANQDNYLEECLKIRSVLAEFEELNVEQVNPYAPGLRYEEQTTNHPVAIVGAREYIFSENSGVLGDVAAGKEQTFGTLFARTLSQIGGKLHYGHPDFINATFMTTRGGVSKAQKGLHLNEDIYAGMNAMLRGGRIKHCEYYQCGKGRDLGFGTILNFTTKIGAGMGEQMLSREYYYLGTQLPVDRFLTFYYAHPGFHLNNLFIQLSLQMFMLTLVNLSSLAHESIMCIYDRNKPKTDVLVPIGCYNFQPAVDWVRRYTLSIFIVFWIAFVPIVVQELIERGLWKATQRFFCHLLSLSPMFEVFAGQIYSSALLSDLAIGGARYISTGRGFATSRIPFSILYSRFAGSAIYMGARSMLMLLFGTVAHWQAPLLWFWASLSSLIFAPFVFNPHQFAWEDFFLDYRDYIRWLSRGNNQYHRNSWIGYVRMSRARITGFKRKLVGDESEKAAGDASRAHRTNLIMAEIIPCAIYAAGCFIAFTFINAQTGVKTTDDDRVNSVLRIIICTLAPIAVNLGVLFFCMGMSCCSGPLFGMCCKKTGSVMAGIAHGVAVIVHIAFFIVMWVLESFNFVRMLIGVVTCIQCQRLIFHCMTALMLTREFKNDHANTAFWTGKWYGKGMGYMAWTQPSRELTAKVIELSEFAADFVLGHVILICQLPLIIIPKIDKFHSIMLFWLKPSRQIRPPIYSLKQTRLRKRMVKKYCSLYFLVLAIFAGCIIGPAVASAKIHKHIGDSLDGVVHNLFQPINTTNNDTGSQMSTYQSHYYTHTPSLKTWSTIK
Sequence of 1,3-beta-D glucan synthase from X2180-1A (P06780 1-206, further chain): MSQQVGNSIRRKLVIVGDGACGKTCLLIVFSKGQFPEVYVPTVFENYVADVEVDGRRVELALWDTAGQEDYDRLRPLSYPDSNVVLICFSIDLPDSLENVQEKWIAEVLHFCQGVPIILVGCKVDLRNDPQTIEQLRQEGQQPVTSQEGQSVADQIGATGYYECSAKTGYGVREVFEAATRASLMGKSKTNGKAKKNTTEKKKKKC

## dihydropapulacandin [L-687,781]
[1]
  resistance phenotype in liquid MIC assay: resistance phenotype
[2]
  IC50: 5.08 µg/mL
[3]
  MIC: > 40 µg/mL
[4]
  MIC: 10 µg/mL
[5]
  MIC: > 40 µg/mL
[6]
  MIC: 40 µg/mL
